# Read-outs that look alike come from different tables or passages of the source.
# Biological target: T1, cannabinoid receptor-1 (CB1), CB1R-containing cell membrane (Homo sapiens, UniProt P21554)
# T1 construct: purchased Applied Cell Sciences Inc, Rockville, Md
# Assay: biochemical
# Assay type: binding
# Method: Method A using cell membranes. A compound is dissolved in DMSO and diluted to 1 M as a stock solution. […] A CB1R-containing cell membrane (Applied Cell Sciences Inc, Rockville, Md.) is diluted with binding buffer to a protein concentration of 28 μg/ml.
# The mixture is incubated for 90 min at room temperature, then filtered through Whatman glass fiber C disc filter in a vacuum manifold. The filter is washed three times each with 2.5 ml cold wash buffer (binding buffer with only 2.5 mg/ml BSA). The vacuum-dried filter is transferred to a scintillation vial, treated with 3 ml Eco-Scint, and the radioactivity is read on a Beckman LS6500 scintillation counter from which an IC50 value is calculated. The corresponding Ki values are obtained from serial dilutions according to this method, and calculated through the use of a non-linear regression program (Graphpad Inc, San Diego, Calif.).
# [1] = IC50, displacement of 3H-CP55940 (1 nM) on CB1 receptors
# [2] = displacement of 3H-CP55940 (1 nM) on CB1 receptors, read-out: IC50
# T1 sequence (P21554 whole entry, species assumed): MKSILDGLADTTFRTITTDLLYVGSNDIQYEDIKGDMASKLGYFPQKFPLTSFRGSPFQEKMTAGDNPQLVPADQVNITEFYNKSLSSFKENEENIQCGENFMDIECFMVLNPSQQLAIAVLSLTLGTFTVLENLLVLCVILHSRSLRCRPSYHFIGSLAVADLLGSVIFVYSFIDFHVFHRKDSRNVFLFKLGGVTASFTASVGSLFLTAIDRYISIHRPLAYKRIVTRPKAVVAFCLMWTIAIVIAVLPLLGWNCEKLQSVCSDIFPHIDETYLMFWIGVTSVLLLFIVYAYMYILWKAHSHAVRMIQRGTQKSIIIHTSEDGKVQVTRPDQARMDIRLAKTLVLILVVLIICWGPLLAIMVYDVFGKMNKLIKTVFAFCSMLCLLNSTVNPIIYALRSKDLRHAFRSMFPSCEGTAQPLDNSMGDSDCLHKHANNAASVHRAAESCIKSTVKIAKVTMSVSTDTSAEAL
Compound,IC50 [1] [µM],IC50 [2] [µM]
CC(C)(NC(=O)[C@H](CCC(=O)N1CCN(C2CCCCC2)CC1)N1C(=O)[C@@H](N2C(=O)OC[C@@H]2c2ccccc2)[C@H]1/C=C/c1ccccc1)c1ccccc1 [Example 38AG],< 10,–
CCCN1CCN(C(=O)CC[C@@H](C(=O)NCc2cccc(C(F)(F)F)c2)N2C(=O)[C@@H](N3C(=O)OC[C@@H]3c3ccccc3)[C@H]2/C=C/c2ccccc2)CC1 [Example 35AJ],< 10,–
O=C(NCc1ccccc1C(F)(F)F)[C@H](CCC(=O)N1CCN(C2CCCCC2)CC1)N1C(=O)[C@@H](N2C(=O)OC[C@@H]2c2ccccc2)[C@H]1/C=C/c1ccccc1 [Example 38K],~10,–
O=C(NCc1ccc(F)c(Cl)c1)[C@H](CCC(=O)N1CCN(C2CCCCC2)CC1)N1C(=O)[C@@H](N2C(=O)OC[C@@H]2c2ccccc2)[C@H]1/C=C/c1ccccc1 [Example 38O],< 10,–
O=C(CC[C@@H](C(=O)N1CCN(C2CCCCC2)CC1)N1C(=O)[C@@H](N2C(=O)OC[C@@H]2c2ccccc2)[C@H]1/C=C/c1ccccc1)NCc1cccc(OC(F)(F)F)c1 [Example 37L],< 10,–
O=C(CC[C@@H](C(=O)N1CCN(CCc2cccs2)CC1)N1C(=O)[C@@H](N2C(=O)OC[C@@H]2c2ccccc2)[C@H]1/C=C/c1ccccc1)NCc1cc(F)cc(C(F)(F)F)c1 [Example 73G],–,~10
CC(C)NC(=O)CN1CCN(C(=O)CC[C@@H](C(=O)NCc2cccc(C(F)(F)F)c2)N2C(=O)[C@@H](N3C(=O)OC[C@@H]3c3ccccc3)[C@H]2/C=C/c2ccccc2)CC1 [Example 35AK],< 10,–
O=C(NCc1ccc(C(F)(F)F)cc1)[C@H](CCC(=O)N1CCN(C2CCCCC2)CC1)N1C(=O)[C@@H](N2C(=O)OC[C@@H]2c2ccccc2)[C@H]1/C=C/c1ccccc1 [Example 38BH],< 10,–
COc1cccc([C@@H](C)NC(=O)[C@H](CCC(=O)N2CCN(C3CCCCC3)CC2)N2C(=O)[C@@H](N3C(=O)OC[C@@H]3c3ccccc3)[C@H]2/C=C/c2ccccc2)c1 [Example 38AE],< 10,–
O=C(CC[C@@H](C(=O)N1CCN(CCC2CCCCC2)CC1)N1C(=O)[C@@H](N2C(=O)OC[C@@H]2c2ccccc2)[C@H]1/C=C/c1ccccc1)NCc1cc(F)cc(C(F)(F)F)c1 [Example 73E],< 10,–
O=C(CC[C@@H](C(=O)N1CCN(C2CCCCC2)CC1)N1C(=O)[C@@H](N2C(=O)OC[C@@H]2c2ccccc2)[C@H]1/C=C/c1ccccc1)NCc1ccc(Cl)c(Cl)c1 [Example 37M],< 10,–
O=C(CC[C@@H](C(=O)N1CCN(C2CCCCC2)CC1)N1C(=O)[C@@H](N2C(=O)OC[C@@H]2c2ccccc2)[C@H]1/C=C/c1ccccc1)NCc1cccc(C(F)(F)F)c1F [Example 37T],< 10,–
O=C(CC[C@@H](C(=O)N1CCN(C2CCCCC2)CC1)N1C(=O)[C@@H](N2C(=O)OC[C@@H]2c2ccccc2)[C@H]1/C=C/c1ccccc1)NCc1ccc(F)c(C(F)(F)F)c1 [Example 37R],< 10,–
O=C(NC1CCCc2ccccc21)[C@H](CCC(=O)N1CCN(C2CCCCC2)CC1)N1C(=O)[C@@H](N2C(=O)OC[C@@H]2c2ccccc2)[C@H]1/C=C/c1cccc2ccsc12 (stereo partly drawn) [Example 72A],–,~10
COc1cccc(C(C)NC(=O)C(CCC(=O)N2CCN(C3CCCCC3)CC2)N2C(=O)C(N3C(=O)OCC3c3ccccc3)C2C=Cc2ccccc2)c1 (stereo not drawn) [Example 38AF],< 10,–
C[C@@H](NC(=O)[C@H](CCC(=O)N1CCN(C2CCCCC2)CC1)N1C(=O)[C@@H](N2C(=O)OC[C@@H]2c2cccc(Cl)c2)[C@H]1/C=C/c1ccccc1)c1ccccc1 [Example 73H],–,~10
O=C(NCc1cccc(F)c1)[C@H](CCC(=O)N1CCN(C2CCCCC2)CC1)N1C(=O)[C@@H](N2C(=O)OC[C@@H]2c2ccccc2)[C@H]1/C=C/c1ccccc1 [Example 38M],~10,–
COc1cccc(CNC(=O)[C@H](CCC(=O)N2CCN(C3CCCCC3)CC2)N2C(=O)[C@@H](N3C(=O)OC[C@@H]3c3ccccc3)[C@H]2/C=C/c2ccccc2)c1 [Example 38L],~10,–
O=C(CC[C@@H](C(=O)N1CCN(C2CCCCC2)CC1)N1C(=O)[C@@H](N2C(=O)OC[C@@H]2c2ccccc2)[C@H]1/C=C/c1ccccc1)N1CCC(n2c(O)nc3ccccc32)CC1 [Example 37W],< 10,–
O=C(N[C@@H]1CCCc2ccccc21)[C@H](CCC(=O)N1CCN(C2CCCCCC2)CC1)N1C(=O)[C@@H](N2C(=O)OC[C@@H]2c2ccccc2)[C@H]1/C=C/c1ccccc1 [Example 73A],< 10,–
O=C(NCCc1ccccc1)[C@H](CCC(=O)N1CCN(C2CCCCC2)CC1)N1C(=O)[C@@H](N2C(=O)OC[C@@H]2c2ccccc2)[C@H]1/C=C/c1ccccc1 [Example 38AC],< 10,–

Compound,IC50 [1] [µM],IC50 [2] [µM]
O=C(CC[C@@H](C(=O)N1CCN(C2CCCCC2)CC1)N1C(=O)[C@@H](N2C(=O)OC[C@@H]2c2ccccc2)[C@H]1/C=C/c1ccccc1)NCCOc1ccccc1 [Example 37AB],< 10,–
O=C(CC[C@@H](C(=O)N1CCN(C2CCCCC2)CC1)N1C(=O)[C@@H](N2C(=O)OC[C@@H]2c2ccccc2)[C@H]1/C=C/c1ccccc1)NCc1cc(C(F)(F)F)ccc1F [Example 37Q],< 10,–
O=C(NCc1cccc(C(F)(F)F)c1)[C@H](CCC(=O)N1CCN(C2CCCCC2)CC1)N1C(=O)[C@H](N2C(=O)OC[C@@H]2c2ccccc2)[C@@H]1/C=C/c1ccccc1 [Example 73C],~10,–
O=C(CC[C@@H](C(=O)N1CCN(C2CCCCC2)CC1)N1C(=O)[C@@H](N2C(=O)OC[C@@H]2c2ccccc2)[C@H]1/C=C/c1ccccc1)NCc1cc(Cl)cc(Cl)c1 [Example 37N],< 10,–
O=C(CC[C@@H](C(=O)N1CCN(c2ccccn2)CC1)N1C(=O)[C@@H](N2C(=O)OC[C@@H]2c2ccccc2)[C@H]1/C=C/c1ccccc1)NCc1cc(F)cc(C(F)(F)F)c1 [Example 73F],–,~10
"O=C(C[C@@H](C(=O)NCc1cccc(C(F)(F)F)c1)N1C(=O)[C@@H](N2C(=O)OC[C@@H]2c2ccccc2)[C@H]1CCc1ccccc1)NC1CCN(Cc2ccccc2)CC1 [Example 53A, 2(S)-[[(1-Benzylpiperidin-4-yl)amino]carbonylmethyl]-2-[3 (S)-(4(S)-phenyloxazolidin-2-on-3-yl)-4(R)-(2-phenyleth-1-yl)azetidin-2-on-1-yl]acetic acid N-(3-trifluoromethylbenzyl)amide]",< 10,–
Cc1cccc(CNC(=O)[C@H](CCC(=O)N2CCN(C3CCCCC3)CC2)N2C(=O)[C@@H](N3C(=O)OC[C@@H]3c3ccccc3)[C@H]2/C=C/c2ccccc2)c1 [Example 38V],< 10,–
O=C(CC[C@@H](C(=O)N1CCN(C2CCCCC2)CC1)N1C(=O)[C@@H](N2C(=O)OC[C@@H]2c2ccccc2)[C@H]1/C=C/c1ccccc1)NCC1CCCCC1 [Example 37AA],< 10,–
O=C(N[C@@H]1CCCc2ccccc21)[C@H](CCC(=O)N1CCN(C2CCSCC2)CC1)N1C(=O)[C@@H](N2C(=O)OC[C@@H]2c2ccccc2)[C@H]1/C=C/c1ccccc1 [Example 73B],–,~10
O=C(CC[C@@H](C(=O)N1CCN(C2CCCCC2)CC1)N1C(=O)[C@@H](N2C(=O)OC[C@@H]2c2ccccc2)[C@H]1/C=C/c1ccccc1)Nc1cccc(C(F)(F)F)c1 [Example 37AE],< 10,–
O=C(CC[C@@H](C(=O)N1CCN(C2CCCCC2)CC1)N1C(=O)[C@@H](N2C(=O)OC[C@@H]2c2ccccc2)[C@H]1/C=C/c1ccccc1)NCc1cccc(Cl)c1Cl [Example 37P],< 10,–
"O=C(CN1C(=O)C(c2ccccc2)C1C=Cc1ccccc1)OCc1ccccc1 (stereo not drawn) [Example 70A, Benzyl 2-[3(S*)-2-Phenyl)-4(R*)-(2-styryl)azetidin-2-on-1-yl]acetate]",< 10,–
2(S)-(tert-Butoxycarbonylaminopropyl)-2-[3(S)-(4(S)-phenyloxazolidin-2-on-3-yl)-4(R)-(styr-2-yl)azetidin-2-on-1-yl]acetic acid N-(3-trifluoromethylbenzyl)amide [Example 20Q],–,< 10
COc1cc(CNC(=O)[C@H](CCC(=O)N2CCN(C3CCCCC3)CC2)N2C(=O)[C@@H](N3C(=O)OC[C@@H]3c3ccccc3)[C@H]2/C=C/c2ccccc2)cc(OC)c1 [Example 38AD],< 10,–
O=C(CC[C@@H](C(=O)N1CCc2ccccc2C1)N1C(=O)[C@@H](N2C(=O)OC[C@@H]2c2ccccc2)[C@H]1/C=C/c1ccccc1)N1CCN(C2CCCCC2)CC1 [Example 38BM],< 10,–
O=C(NCc1cc(F)cc(F)c1)[C@H](CCC(=O)N1CCN(C2CCCCC2)CC1)N1C(=O)[C@@H](N2C(=O)OC[C@@H]2c2ccccc2)[C@H]1/C=C/c1ccccc1 [Example 38N],~10,–
O=C(CC[C@@H](C(=O)N1CCN(C2CCCCC2)CC1)N1C(=O)[C@@H](N2C(=O)OC[C@@H]2c2ccccc2)[C@H]1/C=C/c1ccccc1)N1CCC(Cc2ccccc2)CC1 [Example 37AD],< 10,–
O=C(CC[C@@H](C(=O)N1CCN(C2CCCCC2)CC1)N1C(=O)[C@@H](N2C(=O)OC[C@@H]2c2ccccc2)[C@H]1/C=C/c1ccccc1)NC1CCc2ccccc21 (stereo partly drawn) [Example 37V],< 10,–
O=C(NC1CCCc2ccccc21)[C@H](CCC(=O)N1CCN(C2CCCCC2)CC1)N1C(=O)[C@@H](N2C(=O)OC[C@@H]2c2ccccc2)[C@H]1/C=C/c1cccs1 (stereo partly drawn) [Example 72C],~10,–
O=C(NCc1cccc2ccccc12)[C@H](CCC(=O)N1CCN(C2CCCCC2)CC1)N1C(=O)[C@@H](N2C(=O)OC[C@@H]2c2ccccc2)[C@H]1/C=C/c1ccccc1 [Example 38BL],< 10,–
O=C(CC[C@@H](C(=O)N1CCN(C2CCCCC2)CC1)N1C(=O)[C@@H](N2C(=O)OC[C@@H]2c2ccccc2)[C@H]1/C=C/c1ccccc1)NCc1ccc2c(c1)OCO2 [Example 37AC],< 10,–

# — patent publication US20100016274A1, “BETA-LACTAM CANNABINOID RECEPTOR MODULATORS” (priority 2006, published 2010)
